Each compound was assayed on HepG2 (assay: Antiproliferative activity against human HepG2 cells after 72 hrs by MTT assay). Details: HepG2, 72 h.
Format: functional, cell-based

In order of falling IC50:
1. CN(C)CCc1cc2c(cc1-c1cc3ccc4c(c3cn1)OCO4)OCO2  72.5 µM
2. CN(C)CCCCc1cc2c(cc1-c1cc3ccc4c(c3cn1)OCO4)OCO2  55.4 µM

These compounds were tested on HT-29 (assay: Antiproliferative activity against human HT-29 cells after 72 hrs by MTT assay). Details: HT-29, 72 h.
Format: functional, cell-based

First: OCc1cc2c(cc1-c1cc3ccc4c(c3cn1)OCO4)OCO2
Second: CN(C)CCc1cc2c(cc1-c1cc3ccc4c(c3cn1)OCO4)OCO2
The IC50 of the first is lower: 46.7 µM for the first, > 150 µM for the second. The first is the more potent here.

First: CNCCc1cc(OC)c(OC)cc1-c1cc2ccc3c(c2cn1)OCO3
Second: CN(C)CCCCc1cc2c(cc1-c1cc3ccc4c(c3cn1)OCO4)OCO2
The IC50 of the first is 2.9-fold higher: 122 µM for the first, 41.6 µM for the second.

Each compound was assayed on BGC-823 (assay: Antiproliferative activity against human BGC-823 cells after 72 hrs by MTT assay). Details: BGC-823, 72 h.
Format: functional, cell-based

In order of rising IC50:
1. CNCCc1cc(OC)c(OC)cc1-c1cc2ccc3c(c2cn1)OCO3  15.8 µM
2. CN(C)CCc1cc2c(cc1-c1cc3ccc4c(c3cn1)OCO4)OCO2  33.6 µM
3. CN(C)CCCCc1cc2c(cc1-c1cc3ccc4c(c3cn1)OCO4)OCO2  83.5 µM

What follows are compounds tested on SGC-7901 (assay: Antiproliferative activity against human SGC-7901 cells after 72 hrs by MTT assay). Details: SGC-7901, 72 h.
Format: functional, cell-based

Compared with CNCCc1cc(OC)c(OC)cc1-c1cc2ccc3c(c2cn1)OCO3, CN(C)CCc1cc2c(cc1-c1cc3ccc4c(c3cn1)OCO4)OCO2 is lower in IC50: > 150 µM for the first, 45.1 µM for the second. The second is the more potent here.

Work on CN(C)CCCCc1cc2c(cc1-c1cc3ccc4c(c3cn1)OCO4)OCO2 yielded an IC50 of 39 µM.

What follows are compounds tested on HGC-27 (assay: Antiproliferative activity against human HGC-27 cells after 72 hrs by MTT assay). Details: HGC-27, 72 h.
Format: functional, cell-based

In order of falling IC50:
1. CNCCc1cc(OC)c(OC)cc1-c1cc2ccc3c(c2cn1)OCO3  93.9 µM
2. CN(C)CCc1cc2c(cc1-c1cc3ccc4c(c3cn1)OCO4)OCO2  78.5 µM
3. CN(C)CCCCc1cc2c(cc1-c1cc3ccc4c(c3cn1)OCO4)OCO2  38.9 µM

Each compound was assayed on U-251 (assay: Antiproliferative activity against human U-251 cells after 72 hrs by MTT assay). Details: U-251, 72 h.
Format: functional, cell-based

In order of rising IC50:
1. CN(C)CCCCc1cc2c(cc1-c1cc3ccc4c(c3cn1)OCO4)OCO2  15 µM
2. CN(C)CCc1cc2c(cc1-c1cc3ccc4c(c3cn1)OCO4)OCO2  28.5 µM
3. CNCCc1cc(OC)c(OC)cc1-c1cc2ccc3c(c2cn1)OCO3  43.3 µM

The compounds below were run on RKO (assay: Antiproliferative activity against human RKO cells after 72 hrs by MTT assay). Details: not given.
Format: functional, cell-based

First: OCc1cc2c(cc1-c1cc3ccc4c(c3cn1)OCO4)OCO2
Second: CN(C)CCc1cc2c(cc1-c1cc3ccc4c(c3cn1)OCO4)OCO2
The IC50 of the first is lower: 87.4 µM for the first, > 150 µM for the second.

Going from CNCCc1cc(OC)c(OC)cc1-c1cc2ccc3c(c2cn1)OCO3 to CN(C)CCCCc1cc2c(cc1-c1cc3ccc4c(c3cn1)OCO4)OCO2, the IC50 falls from > 150 µM to 93.1 µM.

The compounds below were run on HCT-116 (assay: Antiproliferative activity against human HCT-116 cells after 72 hrs by MTT assay). Details: HCT-116, 72 h.
Format: functional, cell-based

Going from OCc1cc2c(cc1-c1cc3ccc4c(c3cn1)OCO4)OCO2 to CN(C)CCc1cc2c(cc1-c1cc3ccc4c(c3cn1)OCO4)OCO2, the IC50 rises from 46.7 µM to > 150 µM.

Going from CNCCc1cc(OC)c(OC)cc1-c1cc2ccc3c(c2cn1)OCO3 to CN(C)CCCCc1cc2c(cc1-c1cc3ccc4c(c3cn1)OCO4)OCO2, the IC50 falls from > 150 µM to 97 µM. The second is the more potent here.

Each compound was assayed on MCF7 (assay: Antiproliferative activity against human MCF7 cells after 72 hrs by MTT assay). Details: MCF7, 72 h.
Format: functional, cell-based

In order of falling IC50:
1. CN(C)CCc1cc2c(cc1-c1cc3ccc4c(c3cn1)OCO4)OCO2  61.7 µM
2. CN(C)CCCCc1cc2c(cc1-c1cc3ccc4c(c3cn1)OCO4)OCO2  53.6 µM
3. CNCCc1cc(OC)c(OC)cc1-c1cc2ccc3c(c2cn1)OCO3  52.8 µM

The compounds below were run on A549 (assay: Antiproliferative activity against human A549 cells after 72 hrs by MTT assay). Details: A549, 72 h.
Format: functional, cell-based

In order of rising IC50:
1. CN(C)CCc1cc2c(cc1-c1cc3ccc4c(c3cn1)OCO4)OCO2  65.2 µM
2. CN(C)CCCCc1cc2c(cc1-c1cc3ccc4c(c3cn1)OCO4)OCO2  81.9 µM

These compounds were tested on MDA-MB-231 (assay: Antiproliferative activity against human MDA-MB-231 cells after 72 hrs by MTT assay). Details: MDA-MB-231, 72 h.
Format: functional, cell-based

In order of falling IC50:
1. CNCCc1cc(OC)c(OC)cc1-c1cc2ccc3c(c2cn1)OCO3  68.7 µM
2. CN(C)CCc1cc2c(cc1-c1cc3ccc4c(c3cn1)OCO4)OCO2  30.2 µM
3. CN(C)CCCCc1cc2c(cc1-c1cc3ccc4c(c3cn1)OCO4)OCO2  26.6 µM

These compounds were tested on HL-60 (assay: Antiproliferative activity against human HL-60 cells after 72 hrs by MTT assay). Details: HL-60, 72 h.
Format: functional, cell-based

First: CNCCc1cc(OC)c(OC)cc1-c1cc2ccc3c(c2cn1)OCO3
Second: CN(C)CCc1cc2c(cc1-c1cc3ccc4c(c3cn1)OCO4)OCO2
The IC50 of the first is higher: > 150 µM for the first, 130 µM for the second. The second is the more potent here.

What follows are compounds tested on Huh-7 (assay: Antiproliferative activity against human Huh-7 cells after 72 hrs by MTT assay). Details: Huh-7, 72 h.
Format: functional, cell-based

In order of rising IC50:
1. CN(C)CCc1cc2c(cc1-c1cc3ccc4c(c3cn1)OCO4)OCO2  17.6 µM
2. CN(C)CCCCc1cc2c(cc1-c1cc3ccc4c(c3cn1)OCO4)OCO2  37.8 µM
3. OCc1cc2c(cc1-c1cc3ccc4c(c3cn1)OCO4)OCO2  42.3 µM
4. CNCCc1cc(OC)c(OC)cc1-c1cc2ccc3c(c2cn1)OCO3  42.9 µM

Each compound was assayed on L02 (assay: Antiproliferative activity against human L02 cells after 72 hrs by MTT assay). Details: L02, 72 h.
Format: functional, cell-based

CNCCc1cc(OC)c(OC)cc1-c1cc2ccc3c(c2cn1)OCO3 was tested, and the IC50 was > 150 µM.

The compounds below were run on SK-HEP1 (assay: Antiproliferative activity against human SK-HEP1 cells after 72 hrs by MTT assay). Details: SK-HEP1, 72 h.
Format: functional, cell-based

In order of falling IC50:
1. CNCCc1cc(OC)c(OC)cc1-c1cc2ccc3c(c2cn1)OCO3  69.9 µM
2. CN(C)CCCCc1cc2c(cc1-c1cc3ccc4c(c3cn1)OCO4)OCO2  35.6 µM
3. CN(C)CCc1cc2c(cc1-c1cc3ccc4c(c3cn1)OCO4)OCO2  32.4 µM

The compounds below were run on SW480 (assay: Antiproliferative activity against human SW480 cells after 72 hrs by MTT assay). Details: SW480, 72 h.
Format: functional, cell-based

In order of rising IC50:
1. CNCCc1cc(OC)c(OC)cc1-c1cc2ccc3c(c2cn1)OCO3  21.8 µM
2. CN(C)CCc1cc2c(cc1-c1cc3ccc4c(c3cn1)OCO4)OCO2  36.3 µM
3. OCc1cc2c(cc1-c1cc3ccc4c(c3cn1)OCO4)OCO2  36.9 µM
4. CN(C)CCCCc1cc2c(cc1-c1cc3ccc4c(c3cn1)OCO4)OCO2  63.2 µM

These compounds were tested on HCCLM9 (assay: Antiproliferative activity against human HCCLM9 cells after 72 hrs by MTT assay). Details: HCCLM9, 72 h.
Format: functional, cell-based

In order of falling IC50:
1. CN(C)CCCCc1cc2c(cc1-c1cc3ccc4c(c3cn1)OCO4)OCO2  38.5 µM
2. OCc1cc2c(cc1-c1cc3ccc4c(c3cn1)OCO4)OCO2  32.7 µM
3. CN(C)CCc1cc2c(cc1-c1cc3ccc4c(c3cn1)OCO4)OCO2  21 µM
4. CNCCc1cc(OC)c(OC)cc1-c1cc2ccc3c(c2cn1)OCO3  20.2 µM

Source: ChEMBL document CHEMBL5154652, “Design, synthesis and anti-hepatocellular carcinoma activity of 3-arylisoquinoline alkaloids” (Eur J Med Chem, 2022)
